Measurements as given in article PMC8581430, “Peptide ligands targeting FGF receptors promote recovery from dorsal root crush injury via AKT/mTOR signaling” (Theranostics, 2021).

Assays:
primary DRG neurons = assay: Axon growth of primary adult DRG neurons; assay type: cell-based, Sprague-Dawley rat; conditions: CH02 20 μM + Torin1 1 μM, 48 h, n = 62
Description: (§1) Figure 3 Effect of the CH02 peptide on axon growth and neuron survival. (A) Representative images of the CH02 peptide effect on axon growth in adult primary DRG neurons. DRG neurons were obtained from adult Sprague-Dawley rats. After 12-h of culture, neurons were stimulated with CH02 or bFGF for 48 h. Axonal outgrowth was assessed by immunocytochemistry using an antibody against β-tubulin, an axonal marker. Images were acquired from random neurons by fluorescence microscopy. Scale bars = 50 μm. (B) Quantification of the longest axon length of each neuron randomly selected in three independent experiments from (A), using Image-Pro Plus 6.0 software (n = 48 for each condition; *p < 0.05, ****p < 0.0001 by one-way ANOVA with Dunnett's test; ns, not significant; mean ± SD). (C) Representative images of the CH02 effect on axon growth in ex vivo cultured adult DRG explants. The axon is shown in fluorescence (β3-tubulin) images. Scale bars = 100 μm. (D) Quantification of axon growth of DRG explants from (C) using the Neurite-J software (n=4 for each condition; *control vs. CH02; #control vs. bFGF; *p < 0.05, **p < 0.01, ***p < 0.001, #p < 0.05, ##p < 0.01 by two-way ANOVA with Dunnett's test; ns, not significant; mean ± SEM). (E) Cell cytotoxicity assay of primary DRG neurons induced by H2O2. LDH released from damaged cell membranes was detected by an LDH assay kit. The results are expressed as the mean ± SEM (**p < 0.01 by one-way ANOVA with Dunnett's test; ns, not significant, compared with the control group). (F) Representative TUNEL staining of apoptotic neurons induced by H2O2 in the control, CH02, and FGF2 groups. Scale bars = 50 μm. Apoptotic neurons were detected by a TUNEL apoptosis assay kit. TUNEL (green); NeuN, neuronal marker (red); DAPI (blue). (G) Quantification of TUNEL-positive neurons from (F) (n = 3 for each condition; **p < 0.01 by one-way ANOVA with Dunnett's test; ns, not significant, compared with the control group). DRG neurons were obtained from adult Sprague-Dawley rats. […]

DRG explants = assay: Axon growth of ex vivo cultured adult DRG explants; assay type: cell-based, Sprague-Dawley rat; conditions: CH02 20 μM + Torin1 1 μM, 4 days, n = 4
Description: as §1, with “(F) Representative TUNEL staining of apoptotic neurons induced by H2O2 in the control, CH02, and FGF2 groups. Scale bars = 50 μm.” left out, “TUNEL (green); NeuN, neuronal marker (red); DAPI (blue).” left out, “group).” for “group). DRG neurons were obtained from adult Sprague-Dawley rats.”
DRG explants were harvested from adult Sprague-Dawley rats (220-250 g) and placed in a 3.5 cm dish containing 2 mL of ice-cold neurobasal medium supplemented with 1 × B27, 4 mM Glutamax and 3× penicillin/streptomycin (Pen/Strep). […] After 7 days of culture, axon growth was measured. […]

[1] = test system: dorsal root injury (DRI) model; assay: Von Frey test after dorsal root crush injury; assay type: in vivo, Sprague-Dawley rat; conditions: rats after C5-T1 dorsal root crush, up to 8 weeks, n = 5
Description: (§2) Animals were anesthetized by intraperitoneal injection of pentobarbital sodium (40 mg/kg body weight) and local injection of 0.5% lidocaine. Under sterile conditions, a skin incision between the C4 and T2 spinous processes was made using a no. 10 scalpel blade. Subsequent surgeries were performed under a stereomicroscope. The muscles attached to the lamina were separated and removed using a surgical blade and microscissors to expose the lamina. A right hemilaminectomy on the C5-T1 vertebrae was performed using a fine rongeur to expose the right C5-T1 DRGs and associated dorsal roots. After dura mater opening, a concurrent C5 -T1 dorsal root crush injury was performed using no. 7 forceps. The tines of the forceps were inserted above and below the root, halfway between the dorsal root ganglia and DREZ. […]
Animals treated with CH02 or FGF2 (n = 5 animals per group) were assessed using the following behavioral tests: […]
After an acclimation period, the animal was stimulated using a Von Frey-type 0.5 mm filament, which was placed below the center of the plantar surface of the tested paw with increasing pressure. On every test day, each foot (left front and right front) was measured 5 times at 5-min intervals, and the number of paw withdrawals was recorded.

[2] = test system: dorsal root injury (DRI) model; assay: Plantar test after dorsal root crush injury; assay type: in vivo, Sprague-Dawley rat; conditions: rats after C5-T1 dorsal root crush, up to 8 weeks, n = 5
Description: as §2, with “DREZ. Each root was crushed three times, five times each, to ensure that the dorsal roots were crushed to sever all the axons within the root completely.” for “DREZ.”
Animals treated with CH02 or FGF2 (n = 5 animals per group) were assessed using the following behavioral tests:
Animals were acclimated to the testing room for at least 60 min before baseline testing, conducted before any surgical procedure. After dorsal root crush injuries, temperature sensation was measured twice a week for 8 weeks. […] Simultaneously, the paw withdrawal latency was recorded. […]

Molecule | effect of mTOR inhibitor on CH02-promoted axon growth, primary neurons (primary DRG neurons) | effect of mTOR inhibitor on CH02-promoted axon growth, DRG explants (DRG explants) | pressure sensation recovery [1] | thermal sensation recovery [2]
CCC(=O)N1CCN(c2ccc(-n3c(=O)ccc4cnc5ccc(-c6cnc7ccccc7c6)cc5c43)cc2C(F)(F)F)CC1 [Torin1] | greatly reduced the effect of the CH02 peptide in promoting axon growth | greatly reduced the effect of the CH02 peptide in promoting axon growth | – | –
FGF2 | – | – | significantly improved | significantly improved
